Test results published in US9210927B2, “Pesticidal compositions and processes related thereto” (Dow AgroSciences LLC, priority 2013, dated 2015).

Assays:
Assay type in all cases: in vivo
[1] = tested on: CEW (Helicoverpa zea); experiment: Bioassays on Corn Earworm (CEW), 128-well diet tray assay; conditions: Helicoverpa zea, 168 h; percent mortality, second instar larvae, 50 μg/cm^2 on artificial diet, five to seven days, 25° C.; read-out: CEW Rating
Summary of the method: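 Percent larval mortality, averaged across eight wells, read after five to seven days at 25 °C under 14:10 light-dark. Each well held one to five second-instar larvae on diet surface-dosed at 50 μg/cm^2 (compound applied in acetone-water 90:10, then dried).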

[2] = tested on: GPA (Myzus persicae); experiment: Bioassays on Green Peach Aphid (GPA), foliar spray on cabbage seedlings; conditions: 72 h, corrected % control (Abbott), 200 ppm spray on cabbage seedlings, three days, read-out: GPA Rating
Description: Bioassays on Green Peach Aphid (“GPA”) (Myzus persicae) Certain molecules disclosed in this document were tested against GPA using procedures described in the following example. In the reporting of the results, the “GPA Rating Table” was used (See Table Section). Cabbage seedlings grown in 3-inch pots, with 2-3 small (3-5 cm) true leaves, were used as test substrate. The seedlings were infested with 20-50 GPA (wingless adult and nymph stages) one day prior to chemical application. Four pots with individual seedlings were used for each treatment. Test compounds (2 mg) were dissolved in 2 mL of acetone/MeOH (1:1) solvent, forming stock solutions of 1000 ppm test compound. The stock solutions were diluted 5× with 0.025% Tween 20 in H2O to obtain the solution at 200 ppm test compound. A hand-held aspirator-type sprayer was used for spraying a solution to both sides of […] leaves until runoff. Reference plants (solvent check) were sprayed with the diluent only containing 20% by volume of acetone/MeOH (1:1) solvent. Treated plants were held in a holding room for three days at approximately 25° C. and ambient relative humidity (RH) prior to grading. Evaluation was conducted by counting the number of live aphids per plant under a microscope. Percent Control was measured by using Abbott's correction formula (W. S. Abbott, “A Method of Computing the Effectiveness of an Insecticide” J. Econ. Entomol. 18 (1925), pp. 265-267) as follows. Corrected % Control=100*(X−Y)/X • where • X=No. of live aphids on solvent check plants and • Y=No. of live aphids on treated plants The results are indicated in the table entitled “Table 3: Assay Results” (See Table Section).

[3] = tested on: BAW (Spodoptera exigua); experiment: Bioassays on Beet Armyworm (BAW), 128-well diet tray assay; conditions: Spodoptera exigua, 168 h, read-out: BAW Rating
Summary of the method: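 Diet surface dosed at 50 μg/cm^2 (acetone-water 90:10 vehicle), dried, then infested with second-instar larvae, one to five per well. After five to seven days at 25° C. under 14:10 light-dark, mortality per well was scored and averaged over eight wells.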

| SMILES | pest or weed control at 50 µg/cm2 [1] [%] | pest or weed control at 200 ppm [2] [%] | pest or weed control at 50 µg/cm2 [3] [%] |
| --- | --- | --- | --- |
| Cc1cc(/C=C/C(c2cc(Cl)c(F)c(Cl)c2)C(F)(F)F)ccc1C(=O)NCc1ccnc(Cl)c1 (stereo not drawn) [AC54] | 50 to 100 | 0 to 80 | 50 to 100 |
| CC(C)(C)OC(=O)CNC(=O)c1ccc(/C=C/C(c2cc(Cl)c(Cl)c(Cl)c2)C(F)(F)F)cc1Br (stereo not drawn) [AC58] | 50 to 100 | 0 to 80 | 50 to 100 |
| Cc1cc(/C=C/C(c2cc(Cl)cc(Cl)c2)C(F)(F)F)ccc1C(=O)Nc1ccc(Cl)nc1 (stereo not drawn) [AC59] | 50 to 100 | 0 to 80 | 50 to 100 |
| O=C(NC1CSC1)c1ccc(/C=C/C(c2cc(Cl)cc(Cl)c2)C(F)(F)F)cc1F (stereo not drawn) [AC61] | 50 to 100 | 0 to 80 | 50 to 100 |
| O=C(NCc1ccc(Cl)nc1)c1ccc(/C=C/C(c2cc(Cl)c(F)c(Cl)c2)C(F)(F)F)cc1Br (stereo not drawn) [AC63] | 50 to 100 | 0 to 80 | 50 to 100 |
| O=C(CNC(=O)c1ccc(/C=C/C(c2cc(Cl)c(Cl)c(Cl)c2)C(F)(F)F)cc1Cl)NCC(F)(F)F (stereo not drawn) [AC64, (E)-2-Chloro-N-(2-oxo-2-((2,2,2-trifluoroethyl)amino)ethyl)-4-(4,4,4-trifluoro-3-(3,4,5-trichlorophenyl)but-1-en-1-yl)benzamide] | 50 to 100 | 0 to 80 | 50 to 100 |
| O=C(NCc1ccc(Cl)nc1)c1ccc(/C=C/C(c2cc(Cl)c(F)c(Cl)c2)C(F)(F)F)cc1F (stereo not drawn) [AC65] | 50 to 100 | 0 to 80 | 50 to 100 |
| O=C(CNC(=O)c1ccc(/C=C/C(c2cc(Cl)c(Cl)c(Cl)c2)C(F)(F)F)cc1Br)NCC(F)(F)F (stereo not drawn) [AC66] | 50 to 100 | 0 to 80 | 50 to 100 |
| O=C(NC1CSC1)c1ccc(/C=C/C(c2cc(Cl)c(F)c(Cl)c2)C(F)(F)F)cc1F (stereo not drawn) [AC67] | 50 to 100 | 0 to 80 | 50 to 100 |
| Cc1cc(/C=C/C(c2cc(Cl)c(F)c(Cl)c2)C(F)(F)F)ccc1C(=O)NCC(=O)NCC(F)(F)F (stereo not drawn) [AC69] | 50 to 100 | 80 to 100 | 50 to 100 |
| COc1cc(/C=C/C(c2cc(Cl)c(F)c(Cl)c2)C(F)(F)F)ccc1C(=O)NC1CSC1 (stereo not drawn) [AC71] | 50 to 100 | 0 to 80 | 50 to 100 |
| CCc1cc(/C=C/C(c2cc(Cl)c(F)c(Cl)c2)C(F)(F)F)ccc1C(=O)NCc1ccc(Cl)nc1 (stereo not drawn) [AC72] | 50 to 100 | 0 to 80 | 50 to 100 |
| O=C(NCc1ccc(C(F)(F)F)nc1)c1ccc(/C=C/C(c2cc(Cl)c(Cl)c(Cl)c2)C(F)(F)F)cc1Br (stereo not drawn) [AC75] | 50 to 100 | 0 to 80 | 50 to 100 |
| Cc1cc(/C=C/C(c2cc(Cl)c(F)c(Cl)c2)C(F)(F)F)ccc1C(=O)NCc1cc(Cl)ccn1 (stereo not drawn) [AC77] | 50 to 100 | 0 to 80 | 50 to 100 |
| Cc1cc(/C=C/C(c2cc(Cl)c(Cl)c(Cl)c2)C(F)(F)F)ccc1C(=O)NCC(=O)NCC(F)(F)F (stereo not drawn) [AC78] | 50 to 100 | 80 to 100 | 50 to 100 |
| O=C(CNC(=O)c1ccc(/C=C/C(c2cc(Cl)c(F)c(Cl)c2)C(F)(F)F)cc1Br)NCC(F)(F)F (stereo not drawn) [AC79, (E)-2-Bromo-4-(3-(3,5-dichloro-4-fluorophenyl)-4,4,4-trifluorobut-1-en-1-yl)-N-(2-oxo-2-((2,2,2-trifluoroethyl)amino)ethyl)benzamide] | 50 to 100 | 80 to 100 | 50 to 100 |
| CCc1cc(/C=C/C(c2cc(Cl)c(F)c(Cl)c2)C(F)(F)F)ccc1C(=O)NCC(=O)NCC(F)(F)F (stereo not drawn) [AC80] | 50 to 100 | 0 to 80 | 50 to 100 |

| SMILES | pest or weed control at 50 µg/cm2 [1] [%] | pest or weed control at 200 ppm [2] [%] | pest or weed control at 50 µg/cm2 [3] [%] |
| --- | --- | --- | --- |
| O=C(NC1CS(=O)(=O)C1)c1ccc(/C=C/C(c2cc(Cl)cc(Cl)c2)C(F)(F)F)cc1F (stereo not drawn) [AC83, (E)-4-(3-(3,5-Dichlorophenyl)-4,4,4-trifluorobut-1-en-1-yl)-N-(1,1-dioxidothietan-3-yl)-2-fluorobenzamide] | 50 to 100 | 0 to 80 | 50 to 100 |
| COc1cc(/C=C/C(c2cc(Cl)c(F)c(Cl)c2)C(F)(F)F)ccc1C(=O)NC1CS(=O)(=O)C1 (stereo not drawn) [AC85] | 50 to 100 | 0 to 80 | 50 to 100 |
| O=C(NC1C[S+]([O-])C1)c1ccc(/C=C/C(c2cc(Cl)c(F)c(Cl)c2)C(F)(F)F)cc1F (stereo not drawn) [AC87] | 50 to 100 | 0 to 80 | 50 to 100 |
| Cc1cc(/C=C/C(c2cc(Cl)cc(Cl)c2)C(F)(F)F)ccc1C(=O)NCc1nnc(C2CC2)o1 (stereo not drawn) [AC89, (E)-N-((5-Cyclopropyl-1,3,4-oxadiazol-2-yl)methyl)-4-(3-(3,5-dichlorophenyl)-4,4,4-trifluorobut-1-en-1-yl)-2-methylbenzamide] | 50 to 100 | 0 to 80 | 50 to 100 |
| O=C(NC1CCN(C(=O)CC(F)(F)F)CC1)c1ccc(/C=C/C(c2cc(Cl)c(Cl)c(Cl)c2)C(F)(F)F)cc1Br (stereo not drawn) [AC104, (E)-2-Bromo-4-(4,4,4-trifluoro-3-(3,4,5-trichlorophenyl)but-1-en-1-yl)-N-(1-(3,3,3-trifluoropropanoyl)piperidin-4-yl)benzamide] | 50 to 100 | 0 to 80 | 50 to 100 |
| CN1CCC(NC(=O)c2ccc(/C=C/C(c3cc(Cl)c(Cl)c(Cl)c3)C(F)(F)F)cc2Br)CC1 (stereo not drawn) [AC106, (E)-2-Bromo-N-(1-methylpiperidin-4-yl)-4-(4,4,4-trifluoro-3-(3,4,5-trichlorophenyl)but-1-en-1-yl)benzamide] | 50 to 100 | 0 to 80 | 50 to 100 |
| O=C(CC(F)(F)F)NC1CCCc2cc(/C=C/C(c3cc(Cl)c(Cl)c(Cl)c3)C(F)(F)F)ccc21 (stereo not drawn) [BC5] | 50 to 100 | 0 to 80 | 50 to 100 |
| O=C(CC(F)(F)F)NC1CCc2cc(/C=C/C(c3cc(Cl)c(F)c(Cl)c3)C(F)(F)F)ccc21 (stereo not drawn) [BC8] | 50 to 100 | 0 to 80 | 50 to 100 |
| Fc1c(Cl)cc(C(/C=C/c2ccc3c(c2)CCC3NCCC(F)(F)F)C(F)(F)F)cc1Cl (stereo not drawn) [BC10, (E)-5-(3-(3,5-Dichloro-4-fluorophenyl)-4,4,4-trifluorobut-1-en-1-yl)-N-(3,3,3-trifluoropropyl)-2,3-dihydro-1H-inden-1-amine] | 50 to 100 | 0 to 80 | 50 to 100 |
| O=C(NCc1ccc(/C=C/C(c2cc(Cl)cc(Cl)c2)C(F)(F)F)cc1)C1CC1 (stereo not drawn) [CC2] | 50 to 100 | 0 to 80 | 50 to 100 |
| CCC(=O)NCc1ccc(/C=C/C(c2cc(Cl)cc(Cl)c2)C(F)(F)F)cc1 (stereo not drawn) [CC4] | 0 to 50 | 0 to 80 | 50 to 100 |
| O=C(NCc1ccc(/C=C/C(c2cc(Cl)c(Cl)c(Cl)c2)C(F)(F)F)cc1)C1CC1 (stereo not drawn) [CC5] | 50 to 100 | 0 to 80 | 50 to 100 |
| O=C(CC(F)(F)F)NCc1ccc(/C=C/C(c2cc(Cl)c(Cl)c(Cl)c2)C(F)(F)F)cc1 (stereo not drawn) [CC6] | 50 to 100 | 0 to 80 | 50 to 100 |
| CC(=O)NCc1ccc(/C=C/C(c2cc(Cl)cc(Cl)c2)C(F)(F)F)cc1Cl (stereo not drawn) [CC7, (E)-N-(2-Chloro-4-(3-(3,5-dichlorophenyl)-4,4,4-trifluorobut-1-en-1-yl)benzyl)acetamide] | 50 to 100 | 0 to 80 | 50 to 100 |
| O=C(CC(F)(F)F)NCc1ccc(/C=C/C(c2cc(Cl)cc(Cl)c2)C(F)(F)F)cc1Cl (stereo not drawn) [CC9] | 50 to 100 | 0 to 80 | 50 to 100 |
| O=C(NCc1ccc(/C=C/C(c2cc(Cl)c(Cl)c(Cl)c2)C(F)(F)F)cc1Cl)C1CC1 (stereo not drawn) [CC11] | 50 to 100 | 0 to 80 | 50 to 100 |
